The numbers were not newly measured in US20040116351A1, “Method for enhancing the natural reward system for exercise” (FAST BALANCE, INC., priority 2002, published 2004), which cites them from elsewhere.

The conditions of the series: administered PEA.

`NCCc1ccccc1` [PEA, phenylethylamine]: the “Time PEA lasts in the body” value is not above 10 min.
